# Measured values from PMC10700673, “A Smart Intracellular Self‐Assembling Bioorthogonal Raman Active Nanoprobe for Targeted Tumor Imaging” (Advanced Science, 2023).
# Assays:
# [1] = self-assembly into nanoparticles, TEM and DLS; type: physicochemical; conditions: probe solution without legumain enzyme
# Procedure: To accurately evaluate the efficiency of the R6‐AAN‐alkyne‐nitrile nanoprobe, time‐dependent Raman measurements were performed (Figure 2g), where the ratio of alkyne/nitrile peak intensity was used as an indicator of the reaction progress. We found as the reaction progressed the alkyne/nitrile peak intensity increased from 0.22±0.01 to 4.4±0.12 and plateaued at a final value of 4.6±0.12 indicating almost complete conversion of nanoSABER to alkyne‐dimer within 3 h. […] To further get insight into the structural arrangements of the self‐assembled dimers, transmission electron microscopy (TEM) was performed. […]
# All materials were sourced from Sigma, Chem Impex, or Thermo Fisher and used as received, with purification performed only when explicitly indicated. […] The mass of synthesized peptides was determined using Bruker AutoFLex III Maldi‐TOF or Voyager DE‐STR MALDI‐TOF mass spectrometers. ^1H NMR spectra were obtained on a 400 MHz Bruker Avance at 27 °C in dimethylsulfoxide (DMSO)‐d6. Ultraviolet–visible (UV–Vis) absorption spectra were recorded with a Perkin Elmer Lambda 950 UV–Vis spectrophotometer. […] High‐resolution fluorescence imaging was performed using a Leica SP8 confocal microscope equipped with a 63× oil‐immersion objective. The size distribution of nanoparticles was determined using dynamic light scattering (DLS) (Zetasizer Nano, Malvern Instruments) at room temperature (RT). […]
# [2] = test system: DU145, LNCaP, and RWPE1 cells; assay: cell viability, Trypan blue cell counting; type: cell-based; conditions: 48 h of incubation, % of untreated control, three independent experiments
# Excerpt: To confirm that the nanoSABER nanoprobe can effectively differentiate between cells with high and low levels of legumain expression, we examined nanoSABER assembly in DU145, LNCaP, and RWPE1 cells. DU145 and LNCaP are legumain overexpressing and low‐expressing prostate cancer cell lines, respectively, whereas RWPE1 is a normal prostate epithelium cell line. Legumain‐overexpressing tumorigenic cells are aggressive in terms of migration and invasion.^[ [33] ^] Therefore, designing new probes for targeted imaging of legumain expression is of great significance for tumor diagnosis and tumor staging. […] A combination of both high endogenous GSH and high legumain levels is necessary in order for DU145 cells to uncage the thiol and amino groups in the nanoSABER, triggering intramolecular cyclization to form alkyne‐dimers.
# For cell viability testing, the total numbers of DU145, LNCaP, and RWPE1 cells were counted after staining with Trypan blue using an Invitrogen Countess 3 automated cell counter. Cells were incubated with nanoSABER at different concentrations. Cell viability was calculated as a percentage of control (untreated cells) set at 100%. Data were expressed as mean ± standard deviation. from three independent experiments.
# [3] = test system: LNCaP tumors; assay: in vivo Raman imaging of tumor-bearing mice; set-up: species or system NU/J nude mice; conditions: 2 h after IV injection of 0.0125 mmol kg-1, compared with DU145
# Procedure: (§1) To further evaluate the ability of the nanoSABER probe to delineate legumain‐overexpressing tumors, in vivo Raman imaging of tumors of mice inoculated with DU145 and LNCaP cells was performed (Figure 6a). The Raman images were captured 2 h after the intravenous (IV) injection of the nanoSABER probe. […] Our results validated that nanoSABER experienced tumor legumain‐triggered self‐assembly into alkyne‐dimer nanoparticles that effectively generated distinct and higher Raman signals in DU145 tumors. To validate our findings, we included a control group that received a PBS injection instead of the nanoSABER probes. In both types of tumors, no Raman signal was detected in the control group (Figure S15, Supporting Information), further confirming that the observed signals in the experimental groups were indeed attributable to the legumain‐instructed self‐assembly of alkyne‐dimer nanoparticles.
# (§2) All animal experiments were approved by an institutional animal care and use committee (IACUC) protocol. NU/J nude mice (male, 6–8 weeks old) were subcutaneously injected with 1 × 10^6 DU145 or LNCaP cells in the right flank. Once the tumor reached a volume of 100–200 mm^3, mice were IV injected with 0.0125 mmol kg^–1 nanoSABER or PBS (control group). After 2 h, Raman imaging was performed to determine the amount of intracellular self‐assembly within the tumors.
# [4] = test system: DU145 tumor; assay: in vivo Raman imaging of tumor-bearing mice; set-up: species or system NU/J nude mice; conditions: 2 h after IV injection of 0.0125 mmol kg-1
# Procedure: as §1, §2
substance,measurement,setting,value
Ac‐Arg‐Arg‐Arg‐Arg‐Arg‐Arg‐Ala‐Ala‐Asn‐Cys(StBu)‐Pra‐Lys‐CBT [nanoSABER],nanoparticles in TEM before addition of legumain,[1],did not show any detectable nanoparticles
same,toxic concentration (no toxicity up to),[2],> 250 µM
same,Raman signal intensity within the tumor,[3],significantly weaker
same,Raman signal of the alkyne peak at 2120 cm-1 in the tumor,[4],Intense Raman signal
